Measurements as given in PubChem BioAssay AID280 (DTP/NCI, 2004).
Values joined by “and” are separate entries in the source; they are usually repeats but may differ in a detail not shown here. Identical values can stand only once. Toxic doses and inconclusive results are not listed.

System: nude mice, LOX melanoma ip, survival T/C
Test: NCI In Vivo Anticancer Drug Screen. Data for tumor model Human Amelanotic Melanoma (LOX) (intraperitoneal) in NU/NU BALB/C (nude) mice
Details: endpoint: median survival time, higher = longer survival
Procedure: The antitumor activity of compounds was measured in mice bearing transplantable tumors. Survival or tumor size were measured and the results are expressed as the measurement made in the treated group (T) divided by the measurement made in the vehicle treated control group (C). The tumor model used in this assay is Human Amelanotic Melanoma (LOX) (intraperitoneal) in NU/NU BALB/C (nude) mice

[1] = dose: 100.0 mg/kg/injection, schedule: Q04DX003 (ip), vehicle: saline with Tween-80
[2] = dose: 60.0 mg/kg/injection, schedule: Q04DX003 (ip), vehicle: water
[3] = dose: 75.0 mg/kg/injection, schedule: Q04DX003 (ip), vehicle: Klucel (hydroxypropylcellulose) (HPC)
[4] = dose: 150.0 mg/kg/injection, schedule: Q04DX003 (ip), vehicle: Klucel (hydroxypropylcellulose) (HPC)

Structure (SMILES): COc1ccc(O)cc1
- T/C [1]: 124 % of control
- T/C (dose: 200.0 mg/kg/injection, schedule: Q04DX003 (ip), vehicle: saline with Tween-80): 102 % of control

Structure (SMILES): O=S(=O)(O)c1cc(N=C=S)ccc1/C=C/c1ccc(N=C=S)cc1S(=O)(=O)O
- T/C (dose: 3.75 mg/kg/injection, schedule: Q04DX003 (ip), vehicle: saline): 103 % of control
- T/C (dose: 7.5 mg/kg/injection, schedule: Q04DX003 (ip), vehicle: saline): 104 % of control
- T/C (dose: 15.0 mg/kg/injection, schedule: Q04DX003 (ip), vehicle: saline): 90 % of control
- T/C (dose: 30.0 mg/kg/injection, schedule: Q04DX003 (ip), vehicle: saline): 94 % of control

Structure (SMILES): C=C(C)/C([O-])=N/[N+](C)(C)CC(O)CCCCCCCCCCCC (stereo not drawn)
- T/C (dose: 2.5 mg/kg/injection, schedule: Q04DX003 (ip), vehicle: Klucel (hydroxypropylcellulose) (HPC)): 88 % of control
- T/C (dose: 5.0 mg/kg/injection, schedule: Q04DX003 (ip), vehicle: Klucel (hydroxypropylcellulose) (HPC)): 91 % of control
- T/C (dose: 10.0 mg/kg/injection, schedule: Q04DX003 (ip), vehicle: Klucel (hydroxypropylcellulose) (HPC)): 91 % of control and 98 % of control
- T/C (dose: 20.0 mg/kg/injection, schedule: Q04DX003 (ip), vehicle: Klucel (hydroxypropylcellulose) (HPC)): 101 % of control
- T/C (dose: 40.0 mg/kg/injection, schedule: Q04DX003 (ip), vehicle: Klucel (hydroxypropylcellulose) (HPC)): 102 % of control and 105 % of control
- T/C (dose: 80.0 mg/kg/injection, schedule: Q04DX003 (ip), vehicle: Klucel (hydroxypropylcellulose) (HPC)): 105 % of control
- T/C (dose: 160.0 mg/kg/injection, schedule: Q04DX003 (ip), vehicle: Klucel (hydroxypropylcellulose) (HPC)): 87 % of control

Structure (SMILES): COc1ccc2c(c1)-c1nn(CCCN(C)C)c3ccc([N+](=O)[O-])c(c13)N2
- T/C (dose: 5.8 mg/kg/injection, schedule: Q04HX006 (ip), vehicle: water): 116 % of control
- T/C (dose: 8.8 mg/kg/injection, schedule: Q04HX006 (ip), vehicle: water): 119 % of control
- T/C (dose: 13.3 mg/kg/injection, schedule: Q04DX003 (ip), vehicle: water): 117 % of control
- T/C (dose: 13.3 mg/kg/injection, schedule: Q04HX006 (ip), vehicle: water): 123 % of control and 96 % of control
- T/C (dose: 19.8 mg/kg/injection, schedule: Q04DX003 (ip), vehicle: water): 113 % of control
- T/C (dose: 19.8 mg/kg/injection, schedule: Q04HX006 (ip), vehicle: water): 123 % of control
- T/C (dose: 21.0 mg/kg/injection, schedule: Q04DX003 (ip), vehicle: water): 107 % of control
- T/C (dose: 21.6 mg/kg/injection, schedule: Q04DX003 (ip), vehicle: water): 103 % of control
- T/C (dose: 29.7 mg/kg/injection, schedule: Q04DX003 (ip), vehicle: water): 114 % of control
- T/C (dose: 29.7 mg/kg/injection, schedule: Q04HX006 (ip), vehicle: water): 123 % of control
- T/C (dose: 36.0 mg/kg/injection, schedule: Q04DX003 (ip), vehicle: water): 114 % of control and 93 % of control
- T/C (dose: 44.5 mg/kg/injection, schedule: Q04DX003 (ip), vehicle: water): 114 % of control and 117 % of control
- T/C (dose: 44.5 mg/kg/injection, schedule: Q04HX006 (ip), vehicle: water): 122 % of control
- T/C [2]: 109 % of control and 114 % of control
- T/C (dose: 66.7 mg/kg/injection, schedule: Q04DX003 (ip), vehicle: water): 118 % of control

Structure (SMILES): CC(=O)O[C@H]1C(=O)[C@@]2(C)C(C(OC(=O)c3ccccc3)[C@]3(O)C[C@H](OC(=O)C(OC(=O)CCCC(=O)NCCCN(C)C)C(NC(=O)c4ccccc4)c4ccccc4)C(C)=C1C3(C)C)C1(OC(C)=O)COC1C[C@@H]2O (stereo partly drawn)
- T/C (dose: 2.5 mg/kg/injection, schedule: Q01DX009 (ip), vehicle: water): 155 % of control
- T/C (dose: 5.0 mg/kg/injection, schedule: Q01DX009 (ip), vehicle: water): 156 % of control
- T/C (dose: 10.0 mg/kg/injection, schedule: Q01DX009 (ip), vehicle: water): 157 % of control and 225 % of control
- T/C (dose: 20.0 mg/kg/injection, schedule: Q01DX009 (ip), vehicle: water): 205 % of control and 310 % of control

Structure (SMILES): COc1cccc2c1C(CO)N1C(C#N)C3CC(C(=O)O)C(C1C2)N3C (stereo not drawn)
- T/C (dose: 12.5 mg/kg/injection, schedule: Q04DX003 (ip), vehicle: saline): 175 % of control
- T/C (dose: 12.5 mg/kg/injection, schedule: Q04DX003 (ip), vehicle: suspension in saline): 164 % of control
- T/C (dose: 25.0 mg/kg/injection, schedule: Q04DX003 (ip), vehicle: saline): 157 % of control

Structure (SMILES): COc1ccc(OC)c(Cc2cnc3nc(N)nc(N)c3c2C)c1
- T/C (dose: 7.5 mg/kg/injection, schedule: Q04DX003 (ip), vehicle: water): 99 % of control
- T/C (dose: 15.0 mg/kg/injection, schedule: Q04DX003 (ip), vehicle: water): 105 % of control
- T/C (dose: 30.0 mg/kg/injection, schedule: Q04DX003 (ip), vehicle: water): 101 % of control
- T/C (dose: 37.5 mg/kg/injection, schedule: Q04DX003 (ip), vehicle: water): 91 % of control
- T/C [2]: 107 % of control
- T/C (dose: 75.0 mg/kg/injection, schedule: Q04DX003 (ip), vehicle: water): 88 % of control

Structure (SMILES): [CH3][Sn]([CH3])([Cl])[S]CCN
- T/C (dose: 6.25 mg/kg/injection, schedule: Q04DX003 (ip), vehicle: saline with Tween-80): 101 % of control
- T/C (dose: 12.5 mg/kg/injection, schedule: Q04DX003 (ip), vehicle: saline with Tween-80): 109 % of control
- T/C (dose: 25.0 mg/kg/injection, schedule: Q04DX003 (ip), vehicle: saline with Tween-80): 105 % of control
- T/C (dose: 50.0 mg/kg/injection, schedule: Q04DX003 (ip), vehicle: saline with Tween-80): 115 % of control
- T/C [1]: 103 % of control

Structure (SMILES): COc1cc(NS(C)(=O)=O)ccc1Nc1c2ccccc2nc2ccccc12
- T/C (dose: 2.5 mg/kg/injection, schedule: Q04DX003 (ip), vehicle: other): 117 % of control
- T/C (dose: 5.0 mg/kg/injection, schedule: Q04DX003 (ip), vehicle: other): 122 % of control

Structure (SMILES): O=C(/C=C/c1ccccc1)c1ccccc(=O)c1O
- T/C (dose: 6.85 mg/kg/injection, schedule: Q04DX003 (ip), vehicle: Klucel (hydroxypropylcellulose) (HPC)): 100 % of control
- T/C (dose: 13.7 mg/kg/injection, schedule: Q04DX003 (ip), vehicle: Klucel (hydroxypropylcellulose) (HPC)): 97 % of control
- T/C (dose: 27.5 mg/kg/injection, schedule: Q04DX003 (ip), vehicle: Klucel (hydroxypropylcellulose) (HPC)): 104 % of control
- T/C (dose: 55.0 mg/kg/injection, schedule: Q04DX003 (ip), vehicle: Klucel (hydroxypropylcellulose) (HPC)): 108 % of control
- T/C (dose: 110.0 mg/kg/injection, schedule: Q04DX003 (ip), vehicle: Klucel (hydroxypropylcellulose) (HPC)): 94 % of control

Structure (SMILES): CN(C=O)C(C(=O)Nc1cccc2c(OC(=O)C(N(C)C=O)(N(C)C=O)N(C)C=O)c(N=Nc3ccc(S(=O)(=O)Nc4nccs4)cc3)cc(N=Nc3ccc(S(=O)(=O)Nc4nccs4)cc3)c12)(N(C)C=O)N(C)C=O (tested in a mixture with another compound)
- T/C (dose: 75.0 mg/kg/injection, schedule: Q04DX003 (ip), vehicle: saline with Tween-80): 101 % of control
- T/C (dose: 150.0 mg/kg/injection, schedule: Q04DX003 (ip), vehicle: saline with Tween-80): 99 % of control
- T/C (dose: 300.0 mg/kg/injection, schedule: Q04DX003 (ip), vehicle: saline with Tween-80): 89 % of control
- T/C (dose: 600.0 mg/kg/injection, schedule: Q04DX003 (ip), vehicle: saline with Tween-80): 95 % of control
- T/C (dose: 1200.0 mg/kg/injection, schedule: Q04DX003 (ip), vehicle: saline with Tween-80): 93 % of control

Structure (SMILES): CC(=O)NC(CCc1ccc(Cl)c(Cl)c1)c1cccc(O)c(=O)c1 (stereo not drawn)
- T/C (dose: 86.4 mg/kg/injection, schedule: Q04DX003 (ip), vehicle: Klucel (hydroxypropylcellulose) (HPC)): 98 % of control
- T/C (dose: 240.0 mg/kg/injection, schedule: Q04DX003 (ip), vehicle: Klucel (hydroxypropylcellulose) (HPC)): 109 % of control

Structure (SMILES): CC(=O)C[n+]1ccccc1Sc1ccc(Cl)cc1
- T/C (dose: 1.5 mg/kg/injection, schedule: Q04DX003 (ip), vehicle: saline with Tween-80): 95 % of control
- T/C (dose: 3.0 mg/kg/injection, schedule: Q04DX003 (ip), vehicle: saline with Tween-80): 94 % of control
- T/C (dose: 6.0 mg/kg/injection, schedule: Q04DX003 (ip), vehicle: saline with Tween-80): 99 % of control
- T/C (dose: 12.0 mg/kg/injection, schedule: Q04DX003 (ip), vehicle: saline with Tween-80): 96 % of control
- T/C (dose: 24.0 mg/kg/injection, schedule: Q04DX003 (ip), vehicle: saline with Tween-80): 95 % of control

Structure (SMILES): CN=C(NC#N)NCCSCc1nc[nH]c1C
- T/C [3]: 98 % of control
- T/C [4]: 98 % of control
- T/C (dose: 300.0 mg/kg/injection, schedule: Q04DX003 (ip), vehicle: Klucel (hydroxypropylcellulose) (HPC)): 101 % of control

Structure (SMILES): COc1ccccc1/C=C/C(=O)c1ccccc(=O)c1O
- T/C (dose: 9.38 mg/kg/injection, schedule: Q04DX003 (ip), vehicle: Klucel (hydroxypropylcellulose) (HPC)): 98 % of control
- T/C (dose: 18.75 mg/kg/injection, schedule: Q04DX003 (ip), vehicle: Klucel (hydroxypropylcellulose) (HPC)): 89 % of control
- T/C (dose: 37.5 mg/kg/injection, schedule: Q04DX003 (ip), vehicle: Klucel (hydroxypropylcellulose) (HPC)): 98 % of control
- T/C [3]: 110 % of control
- T/C [4]: 103 % of control
